From ChEMBL document CHEMBL1146391, “Antifungal diterpenoid alkaloids from Delphinium denudatum” (1997)
In brackets after ≈: the same amount, converted by molar mass. Activity calls are given as the source filed them. The calls are words filed in the database; no cut-off is given here.

What was measured:
Scedosporium boydii = assay: Antifungal activity against Allescheria boydii after 7 days by agar tube dilution method; format: functional; conditions: 168 h
Aspergillus niger = assay: Antifungal activity against Aspergillus niger after 7 days by agar tube dilution method; format: functional; conditions: 168 h
Epidermophyton floccosum = assay: Antifungal activity against Epidermophyton floccosum after 7 days by agar tube dilution method; format: functional; conditions: 168 h
Pleurotus ostreatus = assay: Antifungal activity against Pleurotus ostreatus after 7 days by agar tube dilution method; format: functional; conditions: 168 h
Stachybotrys chartarum = assay: Antifungal activity against Stachybotrys atra after 7 days by agar tube dilution method; format: functional, organism-based
Nigrospora oryzae = assay: Antifungal activity against Nigrospora oryzae after 7 days by agar tube dilution method; format: functional, organism-based
[1] = Antifungal activity against Dutarium rotatum after 7 days by agar tube dilution method; format: functional

Compound | MIC (Scedosporium boydii) | MIC (Aspergillus niger) | MIC (Epidermophyton floccosum) | MIC (Pleurotus ostreatus) | Activity (Stachybotrys chartarum) | Activity (Nigrospora oryzae) | Activity [1]
CCN1C[C@]2(C)CC[C@H](OC)[C@@]34[C@@H]5C[C@@H]6CC[C@](OC(C)=O)([C@@H](C[C@H]23)[C@@H]14)[C@H]5C(=O)O6 | 100 µg/mL (≈ 239 µM) | 200 µg/mL (≈ 479 µM) | 250 µg/mL (≈ 599 µM) | 150 µg/mL (≈ 359 µM) |  |  | 
C=C1C[C@@]23CC(=O)[C@@H]4[C@@]5(C)C[C@H](OC(C)=O)C[C@@]46[C@@H]2C[C@@H]1C(=O)[C@@H]3[C@H]6N(C)C5 [PANICUTINE] | 75 µg/mL (≈ 196 µM) | 125 µg/mL (≈ 326 µM) | 200 µg/mL (≈ 522 µM) | 125 µg/mL (≈ 326 µM) | Active | Active | Active
C=C1C[C@@]23C(=O)C(=O)[C@@H]4[C@@]5(C)C[C@H](OC(C)=O)C[C@@]46[C@@H]2C[C@@H]1C(=O)[C@@H]3[C@H]6N(C)C5 [VILMORRIANONE] | 150 µg/mL (≈ 377 µM) | 100 µg/mL (≈ 252 µM) | 225 µg/mL (≈ 566 µM) | 175 µg/mL (≈ 440 µM) |  |  | 
